Experimental data reported in the kinase profiling compilation of Christmann-Franck et al. (2016).

Assays:
Assay in all cases: KINOMEscan competition binding
Conditions in all cases: compound 10.0 µM
MAPK14 (human) = MAPK14 (human) (UniProt Q16539)
TRPM6 (human) = TRPM6 (human) (UniProt Q9BX84)
[1] = test system: MET (human), P08581 [Y1235D]
FER (human) = FER (human) (UniProt P16591)
[2] = test system: ABL1 (human), P00519 [Y253F]
CDC42BPB (human) = CDC42BPB (human) (UniProt Q9Y5S2)
PLK4 (human) = PLK4 (human) (UniProt O00444)
MAP3K10 (human) = MAP3K10 (human) (UniProt Q02779)
BRSK1 (human) = BRSK1 (human) (UniProt Q8TDC3)
PIM1 (human) = PIM1 (human) (UniProt P11309)
MYLK2 (human) = MYLK2 (human) (UniProt Q9H1R3)
STK35 (human) = STK35 (human) (UniProt Q8TDR2)
NEK1 (human) = NEK1 (human) (UniProt Q96PY6)
MAP4K5 (human) = MAP4K5 (human) (UniProt Q9Y4K4)
PIK3CD (human) = PIK3CD (human) (UniProt O00329)
MAP3K2 (human) = MAP3K2 (human) (UniProt Q9Y2U5)
CAMK2A (human) = CAMK2A (human) (UniProt Q9UQM7)
DCLK2 (human) = DCLK2 (human) (UniProt Q8N568)
CSNK1G3 (human) = CSNK1G3 (human) (UniProt Q9Y6M4)
PRKCE (human) = PRKCE (human) (UniProt Q02156)
MAP3K6 (human) = MAP3K6 (human) (UniProt O95382)
DAPK2 (human) = DAPK2 (human) (UniProt Q9UIK4)
RPS6KA4 KD1 (human) = RPS6KA4 KD1 (human) (UniProt O75676)
FYN (human) = FYN (human) (UniProt P06241)
TAOK2 (human) = TAOK2 (human) (UniProt Q9UL54)
[3] = test system: FLT3 (human), P36888 [D835H]
RPS6KB1 (human) = RPS6KB1 (human) (UniProt P23443)
MAP3K3 (human) = MAP3K3 (human) (UniProt Q99759)
MKNK1 (human) = MKNK1 (human) (UniProt Q9BUB5)
[4] = target: JAK1 JH1 catalytic (human) (UniProt P23458)
NUAK1 (human) = NUAK1 (human) (UniProt O60285)
KIT (human) = KIT (human) (UniProt P10721)
MAPK12 (human) = MAPK12 (human) (UniProt P53778)
MAP2K1 (human) = MAP2K1 (human) (UniProt Q02750)
GRK4 (human) = GRK4 (human) (UniProt P32298)
CDK5 (human) = CDK5 (human) (UniProt Q00535)
SNRK (human) = SNRK (human) (UniProt Q9NRH2)
STK11 (human) = STK11 (human) (UniProt Q15831)
PAK2 (human) = PAK2 (human) (UniProt Q13177)
[5] = target: TYK2 JH1 catalytic (human) (UniProt P29597)

Chain of CDK5 (human) (Q00535 whole entry, looked up): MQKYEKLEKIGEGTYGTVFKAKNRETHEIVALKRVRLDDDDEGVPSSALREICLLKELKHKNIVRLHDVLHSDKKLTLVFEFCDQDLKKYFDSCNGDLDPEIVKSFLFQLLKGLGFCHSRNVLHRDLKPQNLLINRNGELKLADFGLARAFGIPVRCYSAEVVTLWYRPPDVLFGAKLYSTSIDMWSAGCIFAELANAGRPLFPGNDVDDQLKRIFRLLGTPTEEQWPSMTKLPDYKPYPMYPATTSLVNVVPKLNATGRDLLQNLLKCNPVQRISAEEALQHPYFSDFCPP
Chain of TRPM6 (human) (Q9BX84 whole entry, looked up): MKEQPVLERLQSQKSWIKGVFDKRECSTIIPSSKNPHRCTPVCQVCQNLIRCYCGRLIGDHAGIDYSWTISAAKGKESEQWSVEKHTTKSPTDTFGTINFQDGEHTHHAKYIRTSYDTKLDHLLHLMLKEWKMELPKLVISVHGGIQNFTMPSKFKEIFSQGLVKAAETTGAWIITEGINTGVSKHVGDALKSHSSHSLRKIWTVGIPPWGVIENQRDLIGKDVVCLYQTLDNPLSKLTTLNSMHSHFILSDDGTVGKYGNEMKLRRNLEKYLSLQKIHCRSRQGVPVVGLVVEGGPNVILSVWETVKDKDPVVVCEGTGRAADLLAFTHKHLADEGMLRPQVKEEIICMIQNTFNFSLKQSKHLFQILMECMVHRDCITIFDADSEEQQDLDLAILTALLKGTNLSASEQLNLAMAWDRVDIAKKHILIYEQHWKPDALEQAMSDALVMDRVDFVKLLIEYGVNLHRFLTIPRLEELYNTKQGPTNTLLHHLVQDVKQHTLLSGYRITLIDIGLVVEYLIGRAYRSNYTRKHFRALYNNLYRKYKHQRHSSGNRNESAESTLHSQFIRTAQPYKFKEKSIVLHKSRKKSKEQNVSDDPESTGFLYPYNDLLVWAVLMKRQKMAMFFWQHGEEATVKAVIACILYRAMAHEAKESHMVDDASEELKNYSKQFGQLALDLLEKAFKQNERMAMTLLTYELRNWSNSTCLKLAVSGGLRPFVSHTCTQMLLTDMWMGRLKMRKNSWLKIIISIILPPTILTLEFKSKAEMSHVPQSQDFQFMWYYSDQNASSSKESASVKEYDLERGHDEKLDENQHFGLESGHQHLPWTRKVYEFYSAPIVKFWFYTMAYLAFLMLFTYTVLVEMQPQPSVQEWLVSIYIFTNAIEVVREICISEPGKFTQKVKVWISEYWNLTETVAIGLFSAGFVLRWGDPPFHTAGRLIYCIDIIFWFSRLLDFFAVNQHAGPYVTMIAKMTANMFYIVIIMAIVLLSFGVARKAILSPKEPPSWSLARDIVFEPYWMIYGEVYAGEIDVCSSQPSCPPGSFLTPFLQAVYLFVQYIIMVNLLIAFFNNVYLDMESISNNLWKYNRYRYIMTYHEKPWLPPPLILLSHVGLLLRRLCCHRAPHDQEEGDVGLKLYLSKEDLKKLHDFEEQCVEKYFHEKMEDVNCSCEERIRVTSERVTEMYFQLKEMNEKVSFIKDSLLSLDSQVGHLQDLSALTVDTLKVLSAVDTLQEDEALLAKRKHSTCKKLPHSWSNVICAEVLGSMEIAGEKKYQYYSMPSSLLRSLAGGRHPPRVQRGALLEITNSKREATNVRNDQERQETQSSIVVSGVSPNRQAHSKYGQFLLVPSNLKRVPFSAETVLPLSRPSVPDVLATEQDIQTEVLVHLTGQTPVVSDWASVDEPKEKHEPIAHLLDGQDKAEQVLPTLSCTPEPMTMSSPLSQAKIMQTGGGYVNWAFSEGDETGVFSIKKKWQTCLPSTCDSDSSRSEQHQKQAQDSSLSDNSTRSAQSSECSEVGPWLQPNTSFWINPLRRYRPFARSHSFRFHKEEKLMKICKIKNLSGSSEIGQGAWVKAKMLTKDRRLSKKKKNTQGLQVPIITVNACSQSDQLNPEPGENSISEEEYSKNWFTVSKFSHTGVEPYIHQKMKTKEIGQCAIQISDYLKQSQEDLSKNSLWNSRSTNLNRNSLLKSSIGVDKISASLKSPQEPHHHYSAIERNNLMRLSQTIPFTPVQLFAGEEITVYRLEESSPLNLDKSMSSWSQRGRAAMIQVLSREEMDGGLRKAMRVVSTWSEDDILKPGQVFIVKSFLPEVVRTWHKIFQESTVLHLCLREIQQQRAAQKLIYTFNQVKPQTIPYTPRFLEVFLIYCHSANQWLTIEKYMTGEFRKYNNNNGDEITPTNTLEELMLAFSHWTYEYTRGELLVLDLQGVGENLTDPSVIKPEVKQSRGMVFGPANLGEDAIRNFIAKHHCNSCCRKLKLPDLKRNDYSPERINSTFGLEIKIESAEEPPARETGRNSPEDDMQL
Chain of MKNK1 (human) (Q9BUB5 whole entry, looked up): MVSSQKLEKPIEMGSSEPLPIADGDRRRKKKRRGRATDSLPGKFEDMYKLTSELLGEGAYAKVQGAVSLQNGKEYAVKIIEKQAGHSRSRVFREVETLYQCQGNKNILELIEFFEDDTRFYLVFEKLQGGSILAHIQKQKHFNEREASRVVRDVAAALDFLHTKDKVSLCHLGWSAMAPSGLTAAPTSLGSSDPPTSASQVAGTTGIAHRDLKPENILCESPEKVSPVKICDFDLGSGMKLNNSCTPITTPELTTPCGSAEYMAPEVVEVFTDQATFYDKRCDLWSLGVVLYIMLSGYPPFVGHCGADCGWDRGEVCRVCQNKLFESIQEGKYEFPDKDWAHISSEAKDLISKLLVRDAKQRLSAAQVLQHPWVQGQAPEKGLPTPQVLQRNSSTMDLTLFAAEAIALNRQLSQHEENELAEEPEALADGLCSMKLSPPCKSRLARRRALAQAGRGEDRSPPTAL
Chain of GRK4 (human) (P32298 whole entry, looked up): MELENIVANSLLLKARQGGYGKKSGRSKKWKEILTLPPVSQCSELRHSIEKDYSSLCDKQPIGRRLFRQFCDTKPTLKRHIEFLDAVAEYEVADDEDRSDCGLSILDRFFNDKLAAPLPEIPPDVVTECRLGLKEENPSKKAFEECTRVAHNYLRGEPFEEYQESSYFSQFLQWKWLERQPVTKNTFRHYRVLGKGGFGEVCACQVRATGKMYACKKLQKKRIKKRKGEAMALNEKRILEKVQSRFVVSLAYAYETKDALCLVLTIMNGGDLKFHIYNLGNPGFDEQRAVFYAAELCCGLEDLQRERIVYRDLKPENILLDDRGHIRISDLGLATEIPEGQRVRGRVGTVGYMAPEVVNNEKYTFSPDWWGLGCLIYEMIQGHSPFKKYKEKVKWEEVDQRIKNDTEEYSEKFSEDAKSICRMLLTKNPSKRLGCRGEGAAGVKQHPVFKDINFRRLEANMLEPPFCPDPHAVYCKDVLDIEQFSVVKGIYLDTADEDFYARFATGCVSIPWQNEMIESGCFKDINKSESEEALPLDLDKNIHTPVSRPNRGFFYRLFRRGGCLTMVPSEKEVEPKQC
Chain of FER (human) (P16591 whole entry, looked up): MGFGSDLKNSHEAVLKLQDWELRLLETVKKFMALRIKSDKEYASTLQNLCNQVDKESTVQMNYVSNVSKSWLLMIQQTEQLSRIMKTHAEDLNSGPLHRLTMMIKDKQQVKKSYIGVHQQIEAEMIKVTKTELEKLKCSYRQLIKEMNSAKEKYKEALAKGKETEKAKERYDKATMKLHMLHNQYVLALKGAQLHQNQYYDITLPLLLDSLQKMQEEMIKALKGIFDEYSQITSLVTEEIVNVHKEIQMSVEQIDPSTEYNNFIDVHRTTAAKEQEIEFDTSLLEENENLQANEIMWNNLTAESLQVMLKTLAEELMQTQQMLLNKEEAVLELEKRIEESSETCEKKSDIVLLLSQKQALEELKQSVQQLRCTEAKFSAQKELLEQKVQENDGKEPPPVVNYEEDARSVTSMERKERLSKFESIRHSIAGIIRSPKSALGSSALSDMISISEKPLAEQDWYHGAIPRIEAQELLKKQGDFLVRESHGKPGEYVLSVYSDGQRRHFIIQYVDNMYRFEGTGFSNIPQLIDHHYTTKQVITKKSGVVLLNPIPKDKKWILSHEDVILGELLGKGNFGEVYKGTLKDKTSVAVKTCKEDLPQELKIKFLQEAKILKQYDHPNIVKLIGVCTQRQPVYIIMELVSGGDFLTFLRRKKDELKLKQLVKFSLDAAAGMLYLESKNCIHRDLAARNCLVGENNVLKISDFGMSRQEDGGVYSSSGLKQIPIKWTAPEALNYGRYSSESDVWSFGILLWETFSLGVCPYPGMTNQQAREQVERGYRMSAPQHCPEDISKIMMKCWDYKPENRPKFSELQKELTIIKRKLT
Chain of CSNK1G3 (human) (Q9Y6M4 whole entry, looked up): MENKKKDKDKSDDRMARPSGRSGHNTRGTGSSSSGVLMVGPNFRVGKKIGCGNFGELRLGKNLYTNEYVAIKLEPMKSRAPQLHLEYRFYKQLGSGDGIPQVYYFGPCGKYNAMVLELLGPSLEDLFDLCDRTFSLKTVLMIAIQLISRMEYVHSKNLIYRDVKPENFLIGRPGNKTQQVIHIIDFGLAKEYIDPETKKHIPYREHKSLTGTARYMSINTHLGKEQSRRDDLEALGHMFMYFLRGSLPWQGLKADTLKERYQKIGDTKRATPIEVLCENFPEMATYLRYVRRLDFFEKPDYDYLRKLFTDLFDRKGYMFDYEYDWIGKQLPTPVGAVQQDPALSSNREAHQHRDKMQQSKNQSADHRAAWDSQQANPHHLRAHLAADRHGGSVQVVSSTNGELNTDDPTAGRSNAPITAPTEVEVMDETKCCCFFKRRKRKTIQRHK
Chain of PIM1 (human) (P11309 whole entry, looked up): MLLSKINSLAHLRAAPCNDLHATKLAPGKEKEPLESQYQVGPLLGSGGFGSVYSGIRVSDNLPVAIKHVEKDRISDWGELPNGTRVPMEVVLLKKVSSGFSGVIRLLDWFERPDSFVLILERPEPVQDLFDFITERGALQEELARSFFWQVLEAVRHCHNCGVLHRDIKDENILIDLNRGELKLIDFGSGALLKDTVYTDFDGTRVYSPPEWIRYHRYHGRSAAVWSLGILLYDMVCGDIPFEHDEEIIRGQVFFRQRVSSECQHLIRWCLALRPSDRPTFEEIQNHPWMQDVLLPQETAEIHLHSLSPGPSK

O=C(Nc1cccc(Nc2ncc(Br)c(NCCc3cnc[nH]3)n2)c1)N1CCCC1
kinase still bound, per cent of control (MAPK14 (human)): 100% | kinase still bound, per cent of control (TRPM6 (human)): 76% | kinase still bound, per cent of control [1]: 2.4% | kinase still bound, per cent of control (FER (human)): 47% | kinase still bound, per cent of control [2]: 0.1% | kinase still bound, per cent of control (CDC42BPB (human)): 82% | kinase still bound, per cent of control (PLK4 (human)): 0.7% | kinase still bound, per cent of control (MAP3K10 (human)): 0% | kinase still bound, per cent of control (BRSK1 (human)): 7.6% | kinase still bound, per cent of control (PIM1 (human)): 87% | kinase still bound, per cent of control (MYLK2 (human)): 0.35% | kinase still bound, per cent of control (STK35 (human)): 67% | kinase still bound, per cent of control (NEK1 (human)): 30% | kinase still bound, per cent of control (MAP4K5 (human)): 9.6% | kinase still bound, per cent of control (PIK3CD (human)): 84% | kinase still bound, per cent of control (MAP3K2 (human)): 0.25% | kinase still bound, per cent of control (CAMK2A (human)): 27% | kinase still bound, per cent of control (DCLK2 (human)): 70% | kinase still bound, per cent of control (CSNK1G3 (human)): 88% | kinase still bound, per cent of control (PRKCE (human)): 0% | kinase still bound, per cent of control (MAP3K6 (human)): 49% | kinase still bound, per cent of control (DAPK2 (human)): 22% | kinase still bound, per cent of control (RPS6KA4 KD1 (human)): 2.1% | kinase still bound, per cent of control (FYN (human)): 8.2% | kinase still bound, per cent of control (TAOK2 (human)): 5.3% | kinase still bound, per cent of control [3]: 0.2% | kinase still bound, per cent of control (RPS6KB1 (human)): 3.2% | kinase still bound, per cent of control (MAP3K3 (human)): 0.3% | kinase still bound, per cent of control (MKNK1 (human)): 100% | kinase still bound, per cent of control [4]: 0.25% | kinase still bound, per cent of control (NUAK1 (human)): 0% | kinase still bound, per cent of control (KIT (human)): 0.15% | kinase still bound, per cent of control (MAPK12 (human)): 65% | kinase still bound, per cent of control (MAP2K1 (human)): 0.15% | kinase still bound, per cent of control (GRK4 (human)): 5.6% | kinase still bound, per cent of control (CDK5 (human)): 24% | kinase still bound, per cent of control (SNRK (human)): 100% | kinase still bound, per cent of control (STK11 (human)): 3.2% | kinase still bound, per cent of control (PAK2 (human)): 45% | kinase still bound, per cent of control [5]: 0%

O=c1cc(N2CCOCC2)oc2c(-c3cccc4c3sc3ccccc34)cccc12
kinase still bound, per cent of control (MAPK14 (human)): 98% | kinase still bound, per cent of control (TRPM6 (human)): 100% | kinase still bound, per cent of control [1]: 59% | kinase still bound, per cent of control (FER (human)): 100% | kinase still bound, per cent of control [2]: 100% | kinase still bound, per cent of control (CDC42BPB (human)): 88% | kinase still bound, per cent of control (PLK4 (human)): 90% | kinase still bound, per cent of control (MAP3K10 (human)): 100% | kinase still bound, per cent of control (BRSK1 (human)): 100% | kinase still bound, per cent of control (PIM1 (human)): 62% | kinase still bound, per cent of control (MYLK2 (human)): 100% | kinase still bound, per cent of control (STK35 (human)): 80% | kinase still bound, per cent of control (NEK1 (human)): 58% | kinase still bound, per cent of control (MAP4K5 (human)): 89% | kinase still bound, per cent of control (PIK3CD (human)): 3.3% | kinase still bound, per cent of control (MAP3K2 (human)): 100% | kinase still bound, per cent of control (CAMK2A (human)): 78% | kinase still bound, per cent of control (DCLK2 (human)): 100% | kinase still bound, per cent of control (CSNK1G3 (human)): 100% | kinase still bound, per cent of control (PRKCE (human)): 100% | kinase still bound, per cent of control (MAP3K6 (human)): 100% | kinase still bound, per cent of control (DAPK2 (human)): 90% | kinase still bound, per cent of control (RPS6KA4 KD1 (human)): 79% | kinase still bound, per cent of control (FYN (human)): 100% | kinase still bound, per cent of control (TAOK2 (human)): 98% | kinase still bound, per cent of control [3]: 92% | kinase still bound, per cent of control (RPS6KB1 (human)): 67% | kinase still bound, per cent of control (MAP3K3 (human)): 92% | kinase still bound, per cent of control (MKNK1 (human)): 100% | kinase still bound, per cent of control [4]: 100% | kinase still bound, per cent of control (NUAK1 (human)): 100% | kinase still bound, per cent of control (KIT (human)): 80% | kinase still bound, per cent of control (MAPK12 (human)): 99% | kinase still bound, per cent of control (MAP2K1 (human)): 76% | kinase still bound, per cent of control (GRK4 (human)): 100% | kinase still bound, per cent of control (CDK5 (human)): 100% | kinase still bound, per cent of control (SNRK (human)): 73% | kinase still bound, per cent of control (STK11 (human)): 75% | kinase still bound, per cent of control (PAK2 (human)): 61% | kinase still bound, per cent of control [5]: 75%

CN(C)C/C=C/C(=O)Nc1ccc(C(=O)Nc2cccc(Nc3nccc(-c4cccnc4)n3)c2)cc1
kinase still bound, per cent of control (MAPK14 (human)): 99% | kinase still bound, per cent of control (TRPM6 (human)): 100% | kinase still bound, per cent of control [1]: 100% | kinase still bound, per cent of control (FER (human)): 100% | kinase still bound, per cent of control [2]: 40% | kinase still bound, per cent of control (CDC42BPB (human)): 100% | kinase still bound, per cent of control (PLK4 (human)): 29% | kinase still bound, per cent of control (MAP3K10 (human)): 94% | kinase still bound, per cent of control (BRSK1 (human)): 100% | kinase still bound, per cent of control (PIM1 (human)): 95% | kinase still bound, per cent of control (MYLK2 (human)): 53% | kinase still bound, per cent of control (STK35 (human)): 80% | kinase still bound, per cent of control (NEK1 (human)): 63% | kinase still bound, per cent of control (MAP4K5 (human)): 59% | kinase still bound, per cent of control (PIK3CD (human)): 91% | kinase still bound, per cent of control (MAP3K2 (human)): 79% | kinase still bound, per cent of control (CAMK2A (human)): 54% | kinase still bound, per cent of control (DCLK2 (human)): 100% | kinase still bound, per cent of control (CSNK1G3 (human)): 100% | kinase still bound, per cent of control (PRKCE (human)): 75% | kinase still bound, per cent of control (MAP3K6 (human)): 86% | kinase still bound, per cent of control (DAPK2 (human)): 81% | kinase still bound, per cent of control (RPS6KA4 KD1 (human)): 100% | kinase still bound, per cent of control (FYN (human)): 100% | kinase still bound, per cent of control (TAOK2 (human)): 70% | kinase still bound, per cent of control [3]: 28% | kinase still bound, per cent of control (RPS6KB1 (human)): 100% | kinase still bound, per cent of control (MAP3K3 (human)): 93% | kinase still bound, per cent of control (MKNK1 (human)): 42% | kinase still bound, per cent of control [4]: 100% | kinase still bound, per cent of control (NUAK1 (human)): 61% | kinase still bound, per cent of control (KIT (human)): 3.8% | kinase still bound, per cent of control (MAPK12 (human)): 76% | kinase still bound, per cent of control (MAP2K1 (human)): 92% | kinase still bound, per cent of control (GRK4 (human)): 29% | kinase still bound, per cent of control (CDK5 (human)): 100% | kinase still bound, per cent of control (SNRK (human)): 66% | kinase still bound, per cent of control (STK11 (human)): 83% | kinase still bound, per cent of control (PAK2 (human)): 76% | kinase still bound, per cent of control [5]: 15%
